Reference: ChEMBL document CHEMBL3044568, “Synthesis, analgesic, anti-inflammatory, and in vitro antimicrobial activities of some novel quinazolin-4(3H)-one derivatives” (Med Chem Res, 2013)
Converted amounts (≈) assume the structure as drawn.

Key:
Aspergillus fumigatus = assay: Antifungal activity against Aspergillus fumigatus ATCC 46645 assessed as growth inhibition after 48 hr by agar streak dilution method; assay type: functional; settings: ATCC 46645, 48 h
Aspergillus niger = assay: Antifungal activity against Aspergillus niger ATCC 9029 assessed as growth inhibition after 48 hr by agar streak dilution method; assay type: functional; settings: ATCC 9029, 48 h
Klebsiella pneumoniae = assay: Antibacterial activity against Klebsiella pneumoniae ATCC 11298 assessed as growth inhibition after 24 hr by agar streak dilution method; assay type: functional; settings: ATCC 11298, 24 h
Pseudomonas aeruginosa = assay: Antibacterial activity against Pseudomonas aeruginosa […] assessed as growth inhibition after 24 hr by agar streak dilution method; assay type: functional
Rattus norvegicus [1] = assay: Anti-inflammatory activity in Rattus norvegicus Wistar (rat) assessed as protection against carrageenan-induced paw edema at 20 mg/kg, po measured at 1 hr by plethysmographic analysis (reference value: 6 +/- 0.63%); assay type: functional
Rattus norvegicus [2] = assay: Anti-inflammatory activity in Rattus norvegicus Wistar (rat) assessed as protection against carrageenan-induced paw edema at 10 mg/kg, po measured at 1 hr by plethysmographic analysis (reference value: 6 +/- 0.63%); assay type: functional
Rattus norvegicus [3] = assay: Anti-inflammatory activity in Rattus norvegicus Wistar (rat) assessed as protection against carrageenan-induced paw edema at 20 mg/kg, po measured at 30 min by plethysmographic analysis (reference value: 4 +/- 0.28%); assay type: functional
Rattus norvegicus [4] = assay: Anti-inflammatory activity in Rattus norvegicus Wistar (rat) assessed as protection against carrageenan-induced paw edema at 10 mg/kg, po measured at 30 min by plethysmographic analysis (reference value: 4 +/- 0.28%); assay type: functional
Escherichia coli = assay: Antibacterial activity against Escherichia coli ATCC 25922 assessed as growth inhibition after 24 hr by agar streak dilution method; assay type: functional; settings: ATCC 25922, 24 h
Bacillus cereus = assay: Antibacterial activity against Bacillus cereus ATCC 11778 assessed as growth inhibition after 24 hr by agar streak dilution method; assay type: functional; settings: ATCC 11778, 24 h
Micrococcus luteus = assay: Antibacterial activity against Micrococcus luteus ATCC 4698 assessed as growth inhibition after 24 hr by agar streak dilution method; assay type: functional; settings: ATCC 4698, 24 h
[5] = tested on: Staphylococcus epidermidis; assay: Antibacterial activity against Staphylococcus epidermidis ATCC 155 assessed as growth inhibition after 24 hr by agar streak dilution method; assay type: functional; settings: ATCC 155, 24 h
Staphylococcus aureus = assay: Antibacterial activity against Staphylococcus aureus ATCC 9144 assessed as growth inhibition after 24 hr by agar streak dilution method; assay type: functional; settings: ATCC 9144, 24 h
Rattus norvegicus [6] = assay: Ulcerogenecity in Rattus norvegicus Wistar albino (rat) stomach assessed as ulcer index administered 20 mg/kg, ip qd for 3 days measured on day 4 relative to aspirin; assay type: ADME, organism-based; set-up: dose 20 mg/kg, route intraperitoneal; settings: in vivo, 72 h
Rattus norvegicus [7] = assay: Ulcerogenecity in Rattus norvegicus Wistar albino (rat) stomach assessed as ulcer index administered 20 mg/kg, ip qd for 3 days measured on day 4 relative to diclofenac; assay type: ADME, organism-based; set-up: dose 20 mg/kg, route intraperitoneal; settings: in vivo, 72 h
Rattus norvegicus [8] = assay: Ulcerogenecity in Rattus norvegicus Wistar albino (rat) stomach assessed as ulcer index administered 20 mg/kg, ip qd for 3 days measured on day 4 (reference value: 0.13 +/- 0.05 no unit); assay type: ADME, organism-based; set-up: dose 20 mg/kg, route intraperitoneal; settings: in vivo, 72 h
Rattus norvegicus [9] = assay: Anti-inflammatory activity in Rattus norvegicus Wistar (rat) assessed as protection against carrageenan-induced paw edema at 20 mg/kg, po measured at 3 hr by plethysmographic analysis (reference value: 4 +/- 0.75%); assay type: functional
Rattus norvegicus [10] = assay: Anti-inflammatory activity in Rattus norvegicus Wistar (rat) assessed as protection against carrageenan-induced paw edema at 10 mg/kg, po measured at 3 hr by plethysmographic analysis (reference value: 4 +/- 0.75%); assay type: functional
Rattus norvegicus [11] = assay: Anti-inflammatory activity in Rattus norvegicus Wistar (rat) assessed as protection against carrageenan-induced paw edema at 20 mg/kg, po measured at 2 hr by plethysmographic analysis (reference value: 5 +/- 0.41%); assay type: functional
Rattus norvegicus [12] = assay: Anti-inflammatory activity in Rattus norvegicus Wistar (rat) assessed as protection against carrageenan-induced paw edema at 10 mg/kg, po measured at 2 hr by plethysmographic analysis (reference value: 5 +/- 0.41%); assay type: functional
Mus musculus [13] = assay: Analgesic activity in Mus musculus […] albino (mouse) at 20 mg/kg, po measured at 3 hr by tail flick test (reference value: 3 +/- 0.41%)
Mus musculus [14] = assay: Analgesic activity in Mus musculus […] albino (mouse) at 10 mg/kg, po measured at 3 hr by tail flick test (reference value: 3 +/- 0.41%)
Mus musculus [15] = assay: Analgesic activity in Mus musculus […] albino (mouse) at 20 mg/kg, po measured at 2 hr by tail flick test (reference value: 6 +/- 0.84%)
Mus musculus [16] = assay: Analgesic activity in Mus musculus […] albino (mouse) at 10 mg/kg, po measured at 2 hr by tail flick test (reference value: 6 +/- 0.84%)
Mus musculus [17] = assay: Analgesic activity in Mus musculus […] albino (mouse) at 10 mg/kg, po measured at 1 hr by tail flick test (reference value: 5 +/- 0.49%)
Mus musculus [18] = assay: Analgesic activity in Mus musculus […] albino (mouse) at 20 mg/kg, po measured at 1 hr by tail flick test (reference value: 5 +/- 0.49%)
Mus musculus [19] = assay: Analgesic activity in Mus musculus […] albino (mouse) at 20 mg/kg, po measured at 30 min by tail flick test (reference value: 4 +/- 0.72%)
Mus musculus [20] = assay: Analgesic activity in Mus musculus […] albino (mouse) at 10 mg/kg, po measured at 30 min by tail flick test (reference value: 4 +/- 0.72%)

SMILES	MIC (Aspergillus fumigatus)	MIC (Aspergillus niger)	MIC (Klebsiella pneumoniae)	MIC (Pseudomonas aeruginosa)	Activity (Rattus norvegicus [1])	Activity (Rattus norvegicus [2])	Activity (Rattus norvegicus [3])	Activity (Rattus norvegicus [4])	MIC (Escherichia coli)	MIC (Bacillus cereus)	MIC (Micrococcus luteus)	MIC [5]	MIC (Staphylococcus aureus)	Activity (Rattus norvegicus [9])	Activity (Rattus norvegicus [10])	Activity (Rattus norvegicus [11])	Activity (Rattus norvegicus [12])	Activity (Mus musculus [13])	Activity (Mus musculus [14])	Activity (Mus musculus [15])	further results
Cc1ccc(/C=N\NCC(=O)Nc2ccc(-n3c(C)nc4ccccc4c3=O)cc2)o1	62.5 µg/mL (≈ 150 µM)	125 µg/mL (≈ 301 µM)	62.5 µg/mL (≈ 150 µM)	31.2 µg/mL (≈ 75.2 µM)	35%	25%	31%	19%	62.5 µg/mL (≈ 150 µM)	62.5 µg/mL (≈ 150 µM)	125 µg/mL (≈ 301 µM)	62.5 µg/mL (≈ 150 µM)	62.5 µg/mL (≈ 150 µM)	30%	23%	39%	30%	21%	19%	38%	UI (Rattus norvegicus [6]): 31%; UI (Rattus norvegicus [7]): 34%; UI (Rattus norvegicus [8]): 0.77 no unit; Activity (Mus musculus [16]): 27%; Activity (Mus musculus [17]): 24%; Activity (Mus musculus [18]): 33%; Activity (Mus musculus [19]): 29%; Activity (Mus musculus [20]): 17%
O=C([O-])Cc1ccccc1Nc1c(Cl)cccc1Cl.[Na+] [DICLOFENAC SODIUM]	–	–	–	–	51%	36%	40%	31%	–	–	–	–	–	43%	29%	60%	42%	41%	32%	64%	Activity (Mus musculus [16]): 49%; Activity (Mus musculus [17]): 44%; Activity (Mus musculus [18]): 55%; Activity (Mus musculus [19]): 47%; Activity (Mus musculus [20]): 34%
Cc1nc2ccccc2c(=O)n1-c1ccc(NC(=O)CN/N=C/c2ccc(C(F)(F)F)cc2)cc1	15.6 µg/mL (≈ 32.6 µM)	7.81 µg/mL (≈ 16.3 µM)	7.81 µg/mL (≈ 16.3 µM)	7.81 µg/mL (≈ 16.3 µM)	57%	40%	46%	35%	31.2 µg/mL (≈ 65.2 µM)	3.9 µg/mL (≈ 8.13 µM)	7.81 µg/mL (≈ 16.3 µM)	15.6 µg/mL (≈ 32.6 µM)	15.6 µg/mL (≈ 32.6 µM)	47%	39%	65%	46%	45%	39%	70%	UI (Rattus norvegicus [6]): 32%; UI (Rattus norvegicus [7]): 32%; UI (Rattus norvegicus [8]): 0.55 no unit; Activity (Mus musculus [16]): 53%; Activity (Mus musculus [17]): 48%; Activity (Mus musculus [18]): 63%; Activity (Mus musculus [19]): 53%; Activity (Mus musculus [20]): 40%
COc1ccc(/C=N/NCC(=O)Nc2ccc(-n3c(C)nc4ccccc4c3=O)cc2)cc1	62.5 µg/mL (≈ 142 µM)	62.5 µg/mL (≈ 142 µM)	31.2 µg/mL (≈ 70.8 µM)	62.5 µg/mL (≈ 142 µM)	37%	25%	31%	22%	125 µg/mL (≈ 283 µM)	62.5 µg/mL (≈ 142 µM)	62.5 µg/mL (≈ 142 µM)	62.5 µg/mL (≈ 142 µM)	125 µg/mL (≈ 283 µM)	30%	19%	42%	29%	28%	23%	48%	UI (Rattus norvegicus [6]): 51%; UI (Rattus norvegicus [7]): 51%; UI (Rattus norvegicus [8]): 0.86 no unit; Activity (Mus musculus [16]): 35%; Activity (Mus musculus [17]): 32%; Activity (Mus musculus [18]): 40%; Activity (Mus musculus [19]): 35%; Activity (Mus musculus [20]): 24%
CC(=O)N1CCN(c2ccc(OCC3COC(Cn4ccnc4)(c4ccc(Cl)cc4Cl)O3)cc2)CC1 (stereo not drawn) [KETOCONAZOLE]	7.81 µg/mL (≈ 14.7 µM)	15.6 µg/mL (≈ 29.4 µM)	–	–	–	–	–	–	–	–	–	–	–	–	–	–	–	–	–	–	–
Cc1nc2ccccc2c(=O)n1-c1ccc(NC(=O)CN/N=C/c2ccc([N+](=O)[O-])cc2)cc1	15.6 µg/mL (≈ 34.2 µM)	15.6 µg/mL (≈ 34.2 µM)	7.81 µg/mL (≈ 17.1 µM)	15.6 µg/mL (≈ 34.2 µM)	36%	26%	29%	20%	31.2 µg/mL (≈ 68.5 µM)	7.81 µg/mL (≈ 17.1 µM)	15.6 µg/mL (≈ 34.2 µM)	7.81 µg/mL (≈ 17.1 µM)	31.2 µg/mL (≈ 68.5 µM)	31%	20%	40%	31%	27%	25%	49%	UI (Rattus norvegicus [6]): 31%; UI (Rattus norvegicus [7]): 34%; UI (Rattus norvegicus [8]): 0.8 no unit; Activity (Mus musculus [16]): 36%; Activity (Mus musculus [17]): 31%; Activity (Mus musculus [18]): 42%; Activity (Mus musculus [19]): 38%; Activity (Mus musculus [20]): 26%
Cc1nc2ccccc2c(=O)n1-c1ccc(NC(=O)CN/N=C\c2c[nH]c3ccccc23)cc1	62.5 µg/mL (≈ 139 µM)	31.2 µg/mL (≈ 69.4 µM)	15.6 µg/mL (≈ 34.7 µM)	15.6 µg/mL (≈ 34.7 µM)	36%	23%	28%	20%	62.5 µg/mL (≈ 139 µM)	31.2 µg/mL (≈ 69.4 µM)	31.2 µg/mL (≈ 69.4 µM)	31.2 µg/mL (≈ 69.4 µM)	62.5 µg/mL (≈ 139 µM)	32%	21%	41%	29%	20%	18%	41%	UI (Rattus norvegicus [6]): 31%; UI (Rattus norvegicus [7]): 34%; UI (Rattus norvegicus [8]): 0.72 no unit; Activity (Mus musculus [16]): 29%; Activity (Mus musculus [17]): 25%; Activity (Mus musculus [18]): 35%; Activity (Mus musculus [19]): 30%; Activity (Mus musculus [20]): 19%
Cc1ccc(/C=N/NCC(=O)Nc2ccc(-n3c(C)nc4ccccc4c3=O)cc2)cc1	125 µg/mL (≈ 294 µM)	62.5 µg/mL (≈ 147 µM)	31.2 µg/mL (≈ 73.4 µM)	62.5 µg/mL (≈ 147 µM)	54%	35%	41%	30%	62.5 µg/mL (≈ 147 µM)	31.2 µg/mL (≈ 73.4 µM)	125 µg/mL (≈ 294 µM)	62.5 µg/mL (≈ 147 µM)	125 µg/mL (≈ 294 µM)	39%	31%	60%	41%	41%	37%	63%	UI (Rattus norvegicus [6]): 31%; UI (Rattus norvegicus [7]): 34%; UI (Rattus norvegicus [8]): 0.61 no unit; Activity (Mus musculus [16]): 47%; Activity (Mus musculus [17]): 42%; Activity (Mus musculus [18]): 59%; Activity (Mus musculus [19]): 48%; Activity (Mus musculus [20]): 37%
O=C(O)c1cn(C2CC2)c2cc(N3CCNCC3)c(F)cc2c1=O [CIPROFLOXACIN]	–	–	3.9 µg/mL (≈ 11.8 µM)	7.81 µg/mL (≈ 23.6 µM)	–	–	–	–	15.6 µg/mL (≈ 47.1 µM)	7.81 µg/mL (≈ 23.6 µM)	7.81 µg/mL (≈ 23.6 µM)	7.81 µg/mL (≈ 23.6 µM)	15.6 µg/mL (≈ 47.1 µM)	–	–	–	–	–	–	–	–
